Data: patent publication US3939043A, “Antibiotics designated XK-88 series and process for production thereof” (Abbott Laboratories, priority 1973, dated 1976)
Converted amounts (≈) assume the structure as drawn. Like-named read-outs stand apart in the source and are kept apart here.

Legend:
[1] = test system: Staphylococcus aureus; assay: Antibacterial activity against resistant bacteria (summary of Table 4); assay type: cell-based; conditions: Staphylococcus aureus normally resistant to various known antibiotics
Description: (§1) The in vitro antibacterial spectra of the XK-88 antibiotics by agar dilution method (pH 8.0) is illustrated in the following Table 4: […]

[2] = test system: Escherichia coli; assay: as above; assay type: cell-based; conditions: Escherichia coli normally resistant to various known antibiotics
Description: as §1

[3] = test system: Salmonella typhosa ATCC 9992; assay: In vitro antibacterial spectrum by agar dilution method (pH 8.0); assay type: cell-based; conditions: Salmonella enterica, pH 8, read-out: Minimum Inhibitory Concentration (M.I.C.)
[4] = test system: Escherichia coli KY 8327; assay: as above; assay type: cell-based; conditions: KY8327, Escherichia coli KY 8327 (resistant to Kanamycin, Gentamicin, Nebramycin and Tobramycin), read-out: Minimum Inhibitory Concentration (M.I.C.)
[5] = test system: Staphylococcus aureus KY 8950; assay: as above; assay type: cell-based; conditions: KY8950, Staphylococcus aureus KY 8950 (resistant to Streptomycin, Tetracycline, Penicillin and sulfonamide), read-out: Minimum Inhibitory Concentration (M.I.C.)
[6] = test system: Bacillus subtilis No. 10703; assay: as above; assay type: cell-based
[7] = test system: Staphylococcus aureus KY 8957; assay: as above; assay type: cell-based; conditions: KY8957, Staphylococcus aureus KY 8957 (resistant to Chloramphenicol, Streptomycin, Kanamycin, Paromomycin, Nebramycin, Tobramycin and Tetracycline), read-out: Minimum Inhibitory Concentration (M.I.C.)
[8] = test system: Bacillus cereus var. mycoides ATCC 9463; assay: microbe, parasite or virus in culture; assay type: cell-based; conditions: ATCC9463, pH 8, read-out: Minimum Inhibitory Concentration (M.I.C.)
[9] = test system: Escherichia coli KY 8334; assay: In vitro antibacterial spectrum by agar dilution method (pH 8.0); assay type: cell-based; conditions: KY8334, Escherichia coli KY 8334 (resistant to Kanamycin and Tobramycin), read-out: Minimum Inhibitory Concentration (M.I.C.)
[10] = test system: Escherichia coli KY 8314; assay: as above; assay type: cell-based; conditions: KY8314, Escherichia coli KY 8314 (resistant to Streptomycin), read-out: Minimum Inhibitory Concentration (M.I.C.)
Description: (§2) The in vitro antibacterial spectra of the XK-88 antibiotics by agar dilution method (pH 8.0) is illustrated in the following Table 4:
(§3) (Minimum Inhibitory Concentration (μg/ml)
(§4) by agar dilution method (pH 8.0)

[11] = test system: Escherichia coli KY 8310; assay: as above; assay type: cell-based; conditions: KY8310, Escherichia coli KY 8310 (resistant to Chloramphenicol, Streptomycin, Kanamycin, Gentamicin, Paromomycin, Nebramycin, Tobramycin, Spectinomycin and Tetracycline), read-out: Minimum Inhibitory Concentration (M.I.C.)
Description: as §2, §3, §4

[12] = test system: Shigella sonnei ATCC 9290; assay: as above; assay type: cell-based; conditions: ATCC9290, read-out: Minimum Inhibitory Concentration (M.I.C.)
Description: as §2, §3, §4

[13] = test system: Escherichia coli KY 8331; assay: as above; assay type: cell-based; conditions: KY8331, Escherichia coli KY 8331 (resistant to Kanamycin, Ribostamycin, Neomycin, Paromomycin, Lividomycin and Nebramycin), read-out: Minimum Inhibitory Concentration (M.I.C.)
Description: as §2, §3, §4

[14] = test system: Staphylococcus aureus KY 8956; assay: as above; assay type: cell-based; conditions: KY8956, Staphylococcus aureus KY 8956 (resistant to Streptomycin, Paromomycin, Tetracycline, Kanamycin, Nebramycin, Tobramycin and Erythromycin), read-out: Minimum Inhibitory Concentration (M.I.C.)
[15] = test system: Pseudomonas aeruginosa BMH No. 1; assay: as above; assay type: cell-based
[16] = test system: Escherichia coli ATCC 26; assay: as above; assay type: cell-based
[17] = test system: Proteus vulgaris ATCC 6897; assay: as above; assay type: cell-based
[18] = test system: Gram-positive and Gram-negative bacteria; assay: Antibacterial activity (summary of Table 4); assay type: cell-based; conditions: versus the said known antibiotics; from Table 4
Description: as §1

[19] = test system: Streptococcus faecalis ATCC 10541; assay: In vitro antibacterial spectrum by agar dilution method (pH 8.0); assay type: cell-based; conditions: Enterococcus faecalis
[20] = test system: Staphylococcus aureus KY 8953; assay: as above; assay type: cell-based
[21] = test system: Staphylococcus aureus ATCC 6538P; assay: as above; assay type: cell-based; conditions: ATCC6538P, read-out: Minimum Inhibitory Concentration (M.I.C.)
[22] = test system: Klebsiella pneumoniae ATCC 10031; assay: as above; assay type: cell-based; conditions: ATCC10031, read-out: Minimum Inhibitory Concentration (M.I.C.)
[23] = test system: Bacillus cereus ATCC 9634; assay: as above; assay type: cell-based; conditions: ATCC9634, read-out: Minimum Inhibitory Concentration (M.I.C.)
[24] = test system: Staphylococcus aureus KY 8942; assay: as above; assay type: cell-based
[25] = test system: Escherichia coli KY 8348; assay: as above; assay type: cell-based; conditions: KY8348, Escherichia coli KY 8348 (resistant to Streptomycin and Gentamicin), read-out: Minimum Inhibitory Concentration (M.I.C.)
[26] = Solubility; assay type: physicochemical; conditions: for solubility in organic solvents: acetone, ethyl acetate, ethyl ether, chloroform, etc.
[27] = ATCC10541, pH 8, read-out: Minimum Inhibitory Concentration (M.I.C.)
[28] = Staphylococcus aureus, KY8953, pH 8, read-out: Minimum Inhibitory Concentration (M.I.C.)
[29] = Bacillus subtilis No. 10703, agar dilution, pH 8.0, read-out: Minimum Inhibitory Concentration (M.I.C.)
[30] = BMHNO.1, Pseudomonas aeruginosa BMH No. 1, agar dilution, pH 8.0, read-out: Minimum Inhibitory Concentration (M.I.C.)
[31] = ATCC26, Escherichia coli ATCC 26, agar dilution, pH 8.0, read-out: Minimum Inhibitory Concentration (M.I.C.)
[32] = ATCC6897, Proteus vulgaris ATCC 6897, agar dilution, pH 8.0, read-out: Minimum Inhibitory Concentration (M.I.C.)
[33] = KY8953, Staphylococcus aureus KY 8953 (resistant to Streptomycin, Kanamycin, Paromycin, Neomycin, Tetracycline, Erythromycin), agar dilution, pH 8.0, read-out: Minimum Inhibitory Concentration (M.I.C.)
[34] = KY8942, Staphylococcus aureus KY 8942 (resistant to Kanamycin, Paromomycin, Streptomycin, Gentamicin and Nebramycin), agar dilution, pH 8.0, read-out: Minimum Inhibitory Concentration (M.I.C.)

Structure (SMILES) | antibacterial activity [1] | antibacterial activity [2] | MIC [3] [µg/mL] | MIC [4] [µg/mL] | MIC [5] [µg/mL] | MIC [7] [µg/mL] | MIC [8] [µg/mL] | MIC [9] [µg/mL] | MIC [10] [µg/mL] | MIC [11] [µg/mL] | MIC [12] [µg/mL] | MIC [13] [µg/mL] | MIC [14] [µg/mL] | cross resistance with known antibiotics [18] | MIC [21] [µg/mL] | MIC [22] [µg/mL] | MIC [23] [µg/mL] | MIC [25] [µg/mL] | solubility in organic solvents [26] | solubility in methanol and ethanol [26] | other results
NC1CC(N)C(OC2OC(CO)C(O)C(O)C2N)C(O)C1OC1OCC(O)C(O)C1N (stereo not shown) [XK-88-1] | strong antibacterial activity | strong antibacterial activity | 26.1 (≈ 57.4 µM) | 13.1 (≈ 28.8 µM) | 13.1 (≈ 28.8 µM) | 104 (≈ 229 µM) | 3.3 (≈ 7.26 µM) | 1.65 (≈ 3.63 µM) | 52.1 (≈ 115 µM) | > 416 | 52.1 (≈ 115 µM) | > 416 | 208 (≈ 459 µM) | complete cross resistance does not always occur | 6.6 (≈ 14.5 µM) | 13.1 (≈ 28.8 µM) | 6.6 (≈ 14.5 µM) | 13.5 (≈ 29.7 µM) | – | – | MIC ([6]; Bacillus subtilis, NO.10703, pH 8, read-out: Minimum Inhibitory Concentration (M.I.C.)): 52.1 µg/mL (≈ 115 µM); MIC ([15]; Pseudomonas aeruginosa, BMHNO.1, pH 8, read-out: Minimum Inhibitory Concentration (M.I.C.)): > 416 µg/mL; MIC ([16]; Escherichia coli, ATCC26, pH 8, read-out: Minimum Inhibitory Concentration (M.I.C.)): 26.1 µg/mL (≈ 57.4 µM); MIC ([17]; Proteus vulgaris, ATCC6897, pH 8, read-out: Minimum Inhibitory Concentration (M.I.C.)): 416 µg/mL (≈ 916 µM); MIC [19, 27]: > 416 µg/mL; MIC [20, 28]: > 416 µg/mL; MIC ([24]; Staphylococcus aureus, KY8942, pH 8, read-out: Minimum Inhibitory Concentration (M.I.C.)): 52.1 µg/mL (≈ 115 µM)
NCC1CC(O)C(N)C(OC2C(N)CC(N)C(O)C2O)O1 (stereo not shown) [XK-88-2] | strong antibacterial activity | strong antibacterial activity | 0.7 (≈ 2.28 µM) | 0.18 (≈ 0.588 µM) | 0.35 (≈ 1.14 µM) | 0.09 (≈ 0.294 µM) | 0.7 (≈ 2.28 µM) | 5.3 (≈ 17.3 µM) | 1.4 (≈ 4.57 µM) | > 83.3 | 1.4 (≈ 4.57 µM) | 41.7 (≈ 136 µM) | 0.09 (≈ 0.294 µM) | complete cross resistance does not always occur | 0.18 (≈ 0.588 µM) | 0.18 (≈ 0.588 µM) | 2.7 (≈ 8.81 µM) | 0.18 (≈ 0.588 µM) | – | – | MIC [6, 29]: 0.35 µg/mL (≈ 1.14 µM); MIC [15, 30]: 10.5 µg/mL (≈ 34.3 µM); MIC [16, 31]: 0.35 µg/mL (≈ 1.14 µM); MIC [17, 32]: 1.4 µg/mL (≈ 4.57 µM); MIC [19, 27]: > 83.3 µg/mL; MIC [20, 33]: 0.35 µg/mL (≈ 1.14 µM); MIC [24, 34]: 1.4 µg/mL (≈ 4.57 µM)
NCC1OC(OC2C(N)CC(N)C(OC3OCC(O)C(O)C3N)C2O)C(N)C(O)C1O (stereo not shown) [XK-88-3] | strong antibacterial activity | strong antibacterial activity | 0.18 (≈ 0.397 µM) | 0.05 (≈ 0.11 µM) | 0.35 (≈ 0.772 µM) | 5.3 (≈ 11.7 µM) | 2.7 (≈ 5.95 µM) | 5.3 (≈ 11.7 µM) | 0.35 (≈ 0.772 µM) | 83.3 (≈ 184 µM) | 0.35 (≈ 0.772 µM) | 41.7 (≈ 92 µM) | 5.3 (≈ 11.7 µM) | complete cross resistance does not always occur | 0.18 (≈ 0.397 µM) | 0.05 (≈ 0.11 µM) | 2.7 (≈ 5.95 µM) | 0.09 (≈ 0.198 µM) | – | – | MIC [6, 29]: 2.7 µg/mL (≈ 5.95 µM); MIC [15, 30]: > 416 µg/mL; MIC [16, 31]: 0.18 µg/mL (≈ 0.397 µM); MIC [17, 32]: 1.4 µg/mL (≈ 3.09 µM); MIC [19, 27]: > 83.3 µg/mL; MIC [20, 28]: > 83.3 µg/mL; MIC [24, 34]: 1.4 µg/mL (≈ 3.09 µM)
COC1COC(OC2C(N)CC(N)C(OC3OC(CN)CC(O)C3N)C2O)C(N)C1N (stereo not shown) [XK-88-5] | strong antibacterial activity | strong antibacterial activity | 0.09 (≈ 0.2 µM) | 0.04 (≈ 0.0888 µM) | 0.17 (≈ 0.377 µM) | 0.04 (≈ 0.0888 µM) | 0.66 (≈ 1.46 µM) | 0.66 (≈ 1.46 µM) | 0.33 (≈ 0.732 µM) | > 41.6 | 0.14 (≈ 0.311 µM) | 20.8 (≈ 46.2 µM) | < 0.02 | complete cross resistance does not always occur | 0.07 (≈ 0.155 µM) | < 0.05 | 1.31 (≈ 2.91 µM) | 2.7 (≈ 5.99 µM) | – | – | MIC [6, 29]: 0.04 µg/mL (≈ 0.0888 µM); MIC [15, 30]: 8.3 µg/mL (≈ 18.4 µM); MIC [16, 31]: 0.08 µg/mL (≈ 0.178 µM); MIC [17, 32]: 0.53 µg/mL (≈ 1.18 µM); MIC ([19]; ATCC10541, Streptococcus faecalis ATCC 10541, agar dilution, pH 8.0, read-out: Minimum Inhibitory Concentration (M.I.C.)): 10.5 µg/mL (≈ 23.3 µM); MIC [20, 33]: 0.17 µg/mL (≈ 0.377 µM); MIC [24, 34]: 0.66 µg/mL (≈ 1.46 µM)
NC1CC(N)C(OC2OC(CO)C(O)C(O)C2N)C(O)C1OC1OCC(O)C(O)C1N (stereo not shown) [sulfate of XK-88-1] | – | – | – | – | – | – | – | – | – | – | – | – | – | – | – | – | – | – | insoluble | poorly soluble | solubility in water [26]: very soluble
NCC1CC(O)C(N)C(OC2C(N)CC(N)C(O)C2O)O1 (stereo not shown) [sulfate of XK-88-2] | – | – | – | – | – | – | – | – | – | – | – | – | – | – | – | – | – | – | insoluble | poorly soluble | solubility in water [26]: very soluble
NCC1OC(OC2C(N)CC(N)C(OC3OCC(O)C(O)C3N)C2O)C(N)C(O)C1O (stereo not shown) [sulfate of XK-88-3] | – | – | – | – | – | – | – | – | – | – | – | – | – | – | – | – | – | – | insoluble | poorly soluble | solubility in water [26]: very soluble
COC1COC(OC2C(N)CC(N)C(OC3OC(CN)CC(O)C3N)C2O)C(N)C1N (stereo not shown) [sulfate of XK-88-5] | – | – | – | – | – | – | – | – | – | – | – | – | – | – | – | – | – | – | insoluble | poorly soluble | solubility in water [26]: very soluble
